Here are results for 19 compounds from BindingDB's records for doi:10.1021/jm00128a025 (Roche Research Center, 1989).

The nature of the first assay: Inhibition of platelet-activating factor receptor binding activity in dog platelets using [3H]-PAF as radioligand.
By IC50 is commonly meant the concentration needed to halve the response being measured. For the compound `O=C(NCCCCc1cccnc1)c1ccc(-c2cccc(OC3=CC=CC=CC3)c2)cc1`, the IC50 turned out to be 700 nM.

Assay in another assay: as above
This is another data set of the same source.
On to `O=C(NCCCCc1cccnc1)c1ccc(-c2cccc(O)c2)cc1`, for which the concentration for half-maximal inhibition (IC50) is 300 nM.
In turn, `COc1cccc(-c2ccc(C(=O)NCCCCc3cccnc3)cc2)c1` gave an IC50 of 280 nM.
Compound `COc1ccc(-c2ccc(C(=O)NCCCCc3cccnc3)cc2[N+](=O)[O-])cc1OC` returned an IC50 of 200 nM.
In the case of `CCCc1cc(C(=O)N[C@H](C)CCCc2cccnc2)ccc1-c1ccc(OC)c(OC)c1`, the IC50 was determined as 50 nM.
`COc1ccc(-c2ccc(C(=O)NCCCCc3cccnc3)cc2-c2ccc(OC)cc2)cc1` gave an IC50 of 125 nM.
`C[C@H](CCCc1cccnc1)NC(=O)c1ccc(-c2ccccc2)c(-c2ccccc2)c1` registered a half-inhibitory concentration (IC50) of 50 nM.
In turn, `C=CCc1cc(C(=O)N[C@H](C)CCCc2cccnc2)ccc1-c1ccc(OC)c(OC)c1` displayed a half-inhibitory concentration (IC50) of 80 nM.
The same measure, in the same setting: to `COc1ccc(-c2ccc(C(=O)N[C@H](C)CCCc3cccnc3)cc2Br)cc1OC` belongs 180 nM.
With `Cc1ccc(-c2ccc(C(=O)NCCCCc3cccnc3)cc2)cc1C`, the half-maximal inhibitory concentration (IC50) was 200 nM.
Turning to `COc1ccc(-c2ccc(C(=S)N[C@H](C)CCCc3cccnc3)cc2)cc1OC`, the IC50 turned out to be 60 nM.
For `COc1ccc(-c2ccc(C(=O)NCCCCc3cccnc3)cc2Br)cc1OC`, the IC50 came to 220 nM.
Compound `COc1ccc(-c2ccc(C(=O)N[C@H](C)CCCc3cccnc3)cc2[N+](=O)[O-])cc1OC` showed a 50% inhibitory concentration (IC50) of 200 nM.
`COc1ccc(-c2ccc(C(=O)NCCCCc3cccnc3)cc2)cc1OC` had an IC50 of 400 nM.
Turning to `COc1ccc(-c2ccc(C(=O)NCCCCc3cccnc3)cc2OC)cc1OC`, the concentration for half-maximal inhibition (IC50) was found to be 300 nM.
On the same count and under the same terms, for `Cc1cccc(-c2ccc(C(=O)NCCCCc3cccnc3)cc2)c1` the value was 500 nM; for `COc1cccc(-c2ccc(C(=O)N[C@H](C)CCCc3cccnc3)cc2)c1`, 20 nM; for `O=C(NCCCCc1cccnc1)c1ccc(-c2cccc(F)c2)c(F)c1`, 2100 nM.
On to `CCc1cc(C(=O)N[C@H](C)CCCc2cccnc2)ccc1-c1ccc(OC)c(OC)c1`, for which the IC50 was 4 nM.
